The text below walks through data of patent US20260199323A1, “LIGAND COMPOUNDS FOR E3 UBIQUITIN LIGASE, PROTEIN DEGRADERS DEVELOPED ON BASIS OF LIGAND COMPOUNDS, AND USES THEREOF” (GLUETACS THERAPEUTICS (SHANGHAI) CO., LTD., priority 2021, published 2026).

Like-named read-outs stand apart in the source and are kept apart here. Bounds are passed on as bounds.

What all share (assay type): cell-based, Human
One assay deals with MDA-MB-231. The experiment in a line: CCK-8 tumor cell proliferation, MDA-MB-231. As to conditions: Homo sapiens, MDA-MB-231, read-out: IC50 inhibiting proliferation of tumor cells, MDA-MB-231. Here is the method:
(§1) The tumor cells used herein were cultured in a cell culture medium listed in table 4 at 37° C. in an incubator with 5% CO2. Prior to experimentation, all cells used were correctly identified by STR profiling, and tested negative for mycoplasma through routine screenings.
(§2) IC50 values of the compounds of the present disclosure (including the compounds in Tables 1 and 3, and compounds of examples) were measured using the Meilun Cell Counting Kit-8 kit from Dalian Meilun Biotech Co., Ltd. Assay details are as follows: tumor cells were seeded in a 96-well plate at a density listed in Table 5. After 24 h, 100 μL of the inoculated cells were treated with 0.5 μL of the compounds of the present disclosure (including the compounds in Tables 1 and 3, and compounds of examples) at 10 different successively decreasing concentrations (starting at the highest concentration of 10 μM; 5-fold serial dilutions). After the cells were treated with the compounds of the present disclosure for a period of time, the cell viability detection reagent was added to the culture medium for cell viability assessment according to the instructions provided with the CCK-8 kit. […] The growth inhibition of the compounds of the present disclosure on cells was plotted by Prism Graphpad software, and the IC50 values of the compounds of the present disclosure were calculated therefrom.

The next assay concerns SR. The experiment in a line: CCK-8 tumor cell proliferation, SR. As to conditions: for IC50: Homo sapiens, SR, read-out: IC50 inhibiting proliferation of tumor cells, SR. Here is the method:
as §1, §2

For a further assay, the system named is Mino. The assay can be described thus: CCK-8 tumor cell proliferation, Mino. To be noted: for IC50: Homo sapiens, Table 18, FAK inhibitor based, Mino, read-out: IC50 inhibiting proliferation of tumor cells, Mino. Here is the method: as §1, §2
For the next assay, the system named is SW620. The assay can be described thus: CCK-8 tumor cell proliferation, SW620. To be noted: for IC50: Homo sapiens, SW-620. As for the experimental part:
as §1, §2

The next assay deals with PC-9. The assay can be described thus: CCK-8 tumor cell proliferation, PC-9. As to conditions: for IC50: Homo sapiens, PC-9, read-out: IC50 inhibiting proliferation of tumor cells, PC-9; for IC50 for inhibiting the proliferation of tumor cells, PC-9: Table 11, designed based on EGFR inhibitors, 96 h. As for the experimental part:
The tumor cells used herein were cultured in a cell culture medium listed in table 4 at 37° C. in an incubator with 5% CO2.
as §2, with “After” for “IC50 values of the compounds of the present disclosure (including the compounds in Tables 1 and 3, and compounds of examples) were measured using the Meilun Cell Counting Kit-8 kit from Dalian Meilun Biotech Co., Ltd. Assay details are as follows: tumor cells were seeded in a 96-well plate at a density listed in Table 5. After”

Another assay has as its system CAL-62. The assay can be described thus: CCK-8 tumor cell proliferation, CAL-62. To be noted: Homo sapiens; Table 18, FAK inhibitor based; CAL-62; read-out: IC50 inhibiting proliferation of tumor cells, CAL-62. Here is the method: as §1, §2
The subject of another assay is CCRF-CEM. The assay can be described thus: CCK-8 tumor cell proliferation, CCRF-CEM. As to conditions: 96 h. Further details: IC50 for inhibiting the proliferation of tumor cells, CCRF-CEM: scale not given here. As for the experimental part: as §1, §2
Setting [1] is: Table 18, FAK inhibitor based, SW620, read-out: IC50 inhibiting proliferation of tumor cells, SW620.

Regarding `CN(c1nccnc1CNc1nc(Nc2ccc(N3CCN(Cc4ccc5c(c4)CN(C4CCC(=O)NC4=O)C5=O)CC3)cc2)ncc1C(F)(F)F)S(C)(=O)=O` (stereo not shown) [GT-03672, N-(3-(((2-((4-(4-((2-(2,6-dioxopiperidin-3-yl)-1-oxoisoindolin-5-yl)methyl)piperazin-1-yl)phenyl)amino)-5-(trifluoromethyl)pyrimidin-4-yl)amino)methyl)pyrazin-2-yl)-N-methylmethanesulfonamide], the IC50 was 500 to 1000 nM in the assay with MDA-MB-231 (Table 18, FAK inhibitor based); 500 to 1000 nM in the assay with SR (Table 18, FAK inhibitor based); 500 to 1000 nM with Mino; 1000 to 5000 nM in the assay on SW620 (setting [1]); 1000 to 5000 nM in the assay with PC-9 (Table 18, FAK inhibitor based); 500 to 1000 nM in the assay with CAL-62.

With `CN(Cc1ccc2c(c1)CN(C1CCC(=O)NC1=O)C2=O)C1CCN(c2ccc(Nc3ncc4nc(Nc5ccccc5)n(C5CCCC5)c4n3)cc2)CC1` (stereo not shown) [GT-03685, 3-(5-(((1-(4-((9-cyclopentyl-8-(phenylamino)-9H-purin-2-yl)amino)phenyl)piperidin-4-yl)(methyl)amino)methyl)-1-oxoisoindolin-2-yl)piperidine-2,6-dione], the “IC50 for inhibiting the proliferation of tumor cells, CCRF-CEM” value in the assay on CCRF-CEM (Table 11, designed based on EGFR inhibitors) is given as “A+”. Also, the “IC50 for inhibiting the proliferation of tumor cells, PC-9” value in the assay with PC-9 is “A+”.

Take `CNC(=O)c1ccc(Nc2ncc(C(F)(F)F)c(NCc3nccnc3N(C)S(C)(=O)=O)n2)cc1` [Defactinib, reference compound]: the IC50 is 500 to 1000 nM in the assay with Mino; 1000 to 5000 nM with SW620 (setting [1]); 1000 to 5000 nM in the assay with PC-9 (Table 18, FAK inhibitor based).

In the case of `CNC(=O)c1ccccc1Nc1cc(Nc2ccc(N3CCC(N(C)Cc4ccc5c(c4)C(=O)N(C4CCC(=O)NC4=O)C5=O)CC3)cc2OC)ncc1C(F)(F)F` (stereo not shown) [GT-03732, 2-((2-((4-(4-(((2-(2,6-dioxopiperidin-3-yl)-1,3-dioxoisoindolin-5-yl)methyl)(methyl)amino)piperidin-1-yl)-2-methoxyphenyl)amino)-5-(trifluoromethyl)pyridin-4-yl)amino)-N-methylbenzamide], the IC50 with SR (Table 18, FAK inhibitor based) was 100 to 500 nM; with SW620 (setting [1]), 1000 to 5000 nM; with PC-9 (Table 18, FAK inhibitor based) it was 50 to 100 nM.

As for `Cc1cc(Nc2ncc(Cl)c(Nc3ccccc3S(=O)(=O)C(C)C)n2)c(OC(C)C)cc1N1CCN(Cc2ccc3c(c2)CN(C2CCC(=O)NC2=O)C3=O)CC1` (stereo not shown) [GT-03529, 3-(5-((4-(4-((5-chloro-4-((2-(isopropylsulfonyl)phenyl)amino)pyrimidin-2-yl)amino)-5-isopropoxy-2-methylphenyl)piperazin-1-yl)methyl)-1-oxoisoindolin-2-yl)piperidine-2,6-dione], the IC50 in the assay on MDA-MB-231 (Table 15, ALK inhibitor based) was 100 to 500 nM; in the assay on SR (Table 15, ALK inhibitor based), less than 50 nM; with PC-9 (Table 15, ALK inhibitor based), 100 to 500 nM.

In the case of `O=C1CCC(N2Cc3cc(CN4CCN(c5ccc(Nc6ncc7nc(Nc8ccccc8)n(C8CCCC8)c7n6)cc5)CC4)c(F)cc3C2=O)C(=O)N1` (stereo not shown) [GT-03736, 3-(5-((4-(4-((9-cyclopentyl-8-(phenylamino)-9H-purin-2-yl)amino)phenyl)piperazin-1-yl)methyl)-6-fluoro-1-oxoisoindolin-2-yl)piperidine-2,6-dione], in the assay with PC-9, the “IC50 for inhibiting the proliferation of tumor cells, PC-9” value is on record as “A+”.

In the case of `CNC(=O)c1ccccc1Nc1cc(Nc2ccc(N3CCC(N(C)Cc4cc5c(cc4F)C(=O)N(C4CCC(=O)NC4=O)C5)CC3)cc2OC)ncc1C(F)(F)F` (stereo not shown) [GT-03729, 2-((2-((4-(4-(((2-(2,6-dioxopiperidin-3-yl)-6-fluoro-1-oxoisoindolin-5-yl)methyl)(methyl)amino)piperidin-1-yl)-2-methoxyphenyl)amino)-5-(trifluoromethyl)pyridin-4-yl)amino)-N-methylbenzamide], the IC50 in the assay with MDA-MB-231 (Table 18, FAK inhibitor based) was 50 to 100 nM; in the assay with SR (Table 18, FAK inhibitor based), less than 50 nM; with CAL-62, 50 to 100 nM.

For `CNC(=O)c1ccccc1Nc1cc(Nc2ccc(N3CCN(Cc4ccc5c(c4F)CN(C4CCC(=O)NC4=O)C5=O)CC3)cc2OC)ncc1C(F)(F)F` (stereo not shown) [GT-03712, 2-((2-((4-(4-((2-(2,6-dioxopiperidin-3-yl)-4-fluoro-1-oxoisoindolin-5-yl)methyl)piperazin-1-yl)-2-methoxyphenyl)amino)-5-(trifluoromethyl)pyridin-4-yl)amino)-N-methylbenzamide], the IC50 with MDA-MB-231 (Table 18, FAK inhibitor based) was less than 50 nM; in the assay on Mino it was 100 to 500 nM; in the assay on SW620 (setting [1]), less than 50 nM; with PC-9 (Table 18, FAK inhibitor based), 1000 to 5000 nM.

For the compound `CN(C)C(=O)c1cc2cnc(Nc3ccc(N4CCNCC4)cn3)nc2n1C1CCCC1` [Ribociclib, reference compound], in the assay on SW620 (Table 14, designed based on CDK4/6 inhibitors, 96 h, read-out: IC50 for inhibiting the proliferation of tumor cells, SW620), the IC50 is greater than 10000 nM.

Take `Cc1cc(Nc2ncc(Cl)c(Nc3ccccc3S(=O)(=O)C(C)C)n2)c(OC(C)C)cc1N1CCC(N2CCN(Cc3ccc4c(c3)CN(C3CCC(=O)NC3=O)C4=O)CC2)CC1` (stereo not shown) [GT-03531, 3-(5-((4-(1-(4-((5-chloro-4-((2-(isopropylsulfonyl)phenyl)amino)pyrimidin-2-yl)amino)-5-isopropoxy-2-methylphenyl)piperidin-4-yl)piperazin-1-yl)methyl)-1-oxoisoindolin-2-yl)piperidine-2,6-dione]: the IC50 in the assay with MDA-MB-231 (Table 15, ALK inhibitor based) is 100 to 500 nM; with SR (Table 15, ALK inhibitor based), less than 50 nM; in the assay with PC-9 (Table 15, ALK inhibitor based), 1000 to 5000 nM.

`O=C1CCC(N2Cc3cc(CN4CCN(C5CCN(c6ccc(Nc7ncc8nc(Nc9ccccc9)n(C9CCCC9)c8n7)cc6)CC5)CC4)ccc3C2=O)C(=O)N1` (stereo not shown) [GT-03808, 3-(5-((4-(1-(4-((9-cyclopentyl-8-(phenylamino)-9H-purin-2-yl)amino)phenyl)piperidin-4-yl)piperazin-1-yl)methyl)-1-oxoisoindolin-2-yl)piperidine-2,6-dione]: the “IC50 for inhibiting the proliferation of tumor cells, PC-9” value in the assay on PC-9 is reported as “A+”.

In the case of `Cc1nc2c(F)cc(-c3nc(Nc4ccc(N5CCC(N6CCN(Cc7ccc8c(c7)CN(C7CCC(=O)NC7=O)C8=O)CC6)CC5)cn4)ncc3F)cc2n1C(C)C` (stereo not shown) [GT-03719, 3-(5-((4-(1-(6-((5-fluoro-4-(4-fluoro-1-isopropyl-2-methyl-1H-benzo[d]imidazol-6-yl)pyrimidin-2-yl)amino)pyridin-3-yl)piperidin-4-yl)piperazin-1-yl)methyl)-1-oxoisoindolin-2-yl)piperidine-2,6-dione], the “IC50 for inhibiting the proliferation of tumor cells, CCRF-CEM” value in the assay with CCRF-CEM (Table 14, designed based on CDK4/6 inhibitors) is “A+”. Also, the “IC50 for inhibiting the proliferation of tumor cells, SR” value in the assay with SR (Table 14, designed based on CDK4/6 inhibitors, 72 h) is “A+”. The “IC50 for inhibiting the proliferation of tumor cells, SW620” value with SW620 (Table 14, designed based on CDK4/6 inhibitors, 96 h) was “A+”.

Consider `CNC(=O)c1ccccc1Nc1cc(Nc2ccc(N3CCC(N(C)Cc4cc(F)c5c(c4)CN(C4CCC(=O)NC4=O)C5=O)CC3)cc2OC)ncc1C(F)(F)F` (stereo not shown) [GT-03730, 2-((2-((4-(4-(((2-(2,6-dioxopiperidin-3-yl)-7-fluoro-1-oxoisoindolin-5-yl)methyl)(methyl)amino)piperidin-1-yl)-2-methoxyphenyl)amino)-5-(trifluoromethyl)pyridin-4-yl)amino)-N-methylbenzamide], for which the IC50 in the assay on MDA-MB-231 (Table 18, FAK inhibitor based) was 50 to 100 nM; with SR (Table 18, FAK inhibitor based), less than 50 nM; in the assay with CAL-62, less than 50 nM.

`Cc1nc(Nc2ncc(C(=O)Nc3c(C)cccc3Cl)s2)cc(N2CCC(N3CCN(Cc4ccc5c(c4)CN(C4CCC(=O)NC4=O)C5=O)CC3)CC2)n1` (stereo not shown) [GT-03476, N-(2-chloro-6-methylphenyl)-2-((6-(4-(4-((2-(2,6-dioxopiperidin-3-yl)-1-oxoisoindolin-5-yl)methyl)piperazin-1-yl)piperidin-1-yl)-2-methylpyrimidin-4-yl)amino)thiazole-5-carboxamide]: the “IC50 for inhibiting the proliferation of tumor cells, Mino” value in the assay on Mino (Table 13, designed based on BCR-ABL inhibitors, 72 h) was “A+”.
